Literature values as cited in US20110313027A1, “METHODS AND SUBSTANCES FOR STIMULATING MUSCLE REGENERATION” (priority 2008, published 2011).

Test system: SERCAs
Conditions: cultured muscle cells

For C/C=C(/C)C(=O)O[C@H]1C(C)=C2[C@H]([C@@H]1OC(=O)CCCCCCC)[C@@](C)(OC(C)=O)C[C@H](OC(=O)CCC)[C@@]1(O)[C@H]2OC(=O)[C@@]1(C)O [thapsigargin], the “activity of an NFAT reporter construct” value is listed as “increased the activity” and the “myotube growth and differentiation” value is listed as “decreases myotube growth and differentiation”.
